Reference: ChEMBL document CHEMBL5518191, “Camptothecin structure simplification elaborated new imidazo[2,1-b]quinazoline derivative as a human topoisomerase I inhibitor with efficacy against bone cancer cells and colon adenocarcinoma” (Eur J Med Chem, 2024)
Each block holds one compound with its values, some of them ahead of it. Active and inactive are the calls of the source. The calls are words filed in the database; no cut-off is given here.

What was measured:
[1] = system: HCT-116; assay: Cytotoxicity against human HCT-116 cells incubated for 48 hrs by MTT assay; format: functional, cell-based; settings: HCT-116, 48 h
[2] = system: MDA-MB-231; assay: Cytotoxicity against human MDA-MB-231 cells incubated for 48 hrs by MTT assay; format: functional, cell-based; settings: MDA-MB-231, 48 h
[3] = system: DU-145; assay: Cytotoxicity against human DU-145 cells incubated for 48 hrs by MTT assay; format: functional, cell-based; settings: DU-145, 48 h
[4] = system: HOS; assay: Induction of apoptosis in human HOS cells assessed as necrotic cells at 5 uM incubated for 48 hrs by Annexin-V FITC/PI staining based flow cytometry analysis (reference value: 1.51%); format: functional
[5] = Cytotoxicity against human BJ cells incubated for 48 hrs by MTT assay; format: toxicity, cell-based
[6] = system: HOS; assay: Induction of apoptosis in human HOS cells assessed as fold increase in BAX gene expression at 1.47 uM incubated for 48 hrs by RT-qPCR analysis relative to positive control; format: functional
[7] = Antitumor activity against mouse C26 cells xenografted in BALB/c mouse assessed as decrease in tumor volume at 250 mg/kg, po after 1 week; format: functional, C-26; set-up: scale not given: the % may be the effect or the level left; settings: time 1 weeks
[8] = Antitumor activity against mouse C26 cells xenografted in BALB/c mouse assessed as decrease in tumor volume at 250 mg/kg, po after 5 weeks; format: functional, C-26; set-up: scale not given: the % may be the effect or the level left
[9] = biological target: T1, DNA topoisomerase 1 (Homo sapiens) (UniProt P11387); assay: Inhibition of human DNA topoisomerase 1 at 10 uM using supercoiled DNA as substrate incubated for 30 mins by EtBr staining based agarose gel electrophoresis method relative to control
T1 sequence (whole entry): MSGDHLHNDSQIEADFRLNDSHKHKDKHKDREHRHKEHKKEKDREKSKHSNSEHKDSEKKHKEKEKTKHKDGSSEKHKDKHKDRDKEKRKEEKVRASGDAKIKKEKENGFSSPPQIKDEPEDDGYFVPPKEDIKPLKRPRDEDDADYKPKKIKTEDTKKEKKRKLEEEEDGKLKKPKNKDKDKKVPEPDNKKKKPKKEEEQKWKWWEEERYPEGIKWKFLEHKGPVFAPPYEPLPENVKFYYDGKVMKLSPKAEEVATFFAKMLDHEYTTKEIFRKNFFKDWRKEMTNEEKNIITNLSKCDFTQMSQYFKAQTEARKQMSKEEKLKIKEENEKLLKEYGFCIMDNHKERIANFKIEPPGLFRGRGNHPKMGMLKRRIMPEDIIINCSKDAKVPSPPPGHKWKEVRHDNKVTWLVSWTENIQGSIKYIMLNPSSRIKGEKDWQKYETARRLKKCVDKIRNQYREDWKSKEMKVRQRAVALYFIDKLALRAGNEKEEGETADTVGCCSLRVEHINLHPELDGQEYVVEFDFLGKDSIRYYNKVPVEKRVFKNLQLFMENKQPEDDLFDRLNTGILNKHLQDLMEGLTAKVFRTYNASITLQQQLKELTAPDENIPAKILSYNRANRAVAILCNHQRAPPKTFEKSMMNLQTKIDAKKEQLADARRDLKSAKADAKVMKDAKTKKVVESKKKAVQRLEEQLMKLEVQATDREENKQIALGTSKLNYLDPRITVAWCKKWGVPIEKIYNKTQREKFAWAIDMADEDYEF

[10] = system: HOS; assay: Induction of cell cycle arrest in human HOS cells assessed as accumulation of cells at G0/G1 phase after 48 hrs by flow cytometry analysis (reference value: 52.39 %); format: functional
[11] = system: PANC-1; assay: Cytotoxicity against human PANC-1 cells incubated for 48 hrs by MTT assay; format: functional, cell-based; settings: PANC-1, 48 h
[12] = system: SAOS-2; assay: Cytotoxicity against human SAOS-2 cells incubated for 48 hrs by MTT assay; format: functional, cell-based; settings: SAOS-2, 48 h
[13] = Selectivity ratio of IC50 for human BJ cells to IC50 for human HOS cells
[14] = system: C-26; assay: Antitumor activity against mouse C26 cells xenografted in BALB/c mouse assessed as decrease in tumor volume at 250 mg/kg, po after 35 days; format: functional, organism-based; settings: time 35.0 day
[15] = Acute toxicity in Swiss albino mouse assessed as change in ALT level at 1.47 uM/kg, po administered for 14 days; format: organism-based; settings: in vivo, 336 h, time 14 day
[16] = system: MG-63; assay: Cytotoxicity against human MG-63 cells incubated for 48 hrs by MTT assay; format: functional, cell-based
[17] = system: HOS; assay: Induction of cell cycle arrest in human HOS cells assessed as accumulation of cells at G2/M phase after 48 hrs by flow cytometry analysis (reference value: 14.86 %); format: functional
[18] = system: HOS; assay: Cytotoxicity against human HOS cells incubated for 48 hrs by MTT assay; format: functional, cell-based
[19] = system: HOS; assay: Induction of apoptosis in human HOS cells assessed as late apoptotic cells at 5 uM incubated for 48 hrs by Annexin-V FITC/PI staining based flow cytometry analysis (reference value: 0.21%); format: functional
[20] = system: HOS; assay: Induction of cell cycle arrest in human HOS cells assessed as accumulation of cells at pre-G1 phase after 48 hrs by flow cytometry analysis (reference value: 2.18 %); format: functional
[21] = system: HOS; assay: Induction of apoptosis in human HOS cells assessed as fold decrease in Her2 gene expression at 1.47 uM incubated for 48 hrs by RT-qPCR analysis relative to positive control; format: functional
[22] = Acute toxicity in Swiss albino mouse assessed as change in GGT level at 1.47 uM/kg, po administered for 14 days; format: organism-based; settings: in vivo, 336 h, time 14 day
[23] = system: PC-3; assay: Cytotoxicity against human PC-3 cells incubated for 48 hrs by MTT assay; format: functional, cell-based; settings: PC-3, 48 h
[24] = system: HOS; assay: Induction of cell cycle arrest in human HOS cells assessed as accumulation of cells at S phase after 48 hrs by flow cytometry analysis (reference value: 32.75 %); format: functional
[25] = system: HOS; assay: Induction of apoptosis in human HOS cells assessed as fold decrease in BCL-2 gene expression at 1.47 uM incubated for 48 hrs by RT-qPCR analysis relative to positive control; format: functional
[26] = system: MCF7; assay: Cytotoxicity against human MCF7 cells incubated for 48 hrs by MTT assay; format: functional, cell-based; settings: MCF7, 48 h
[27] = system: HOS; assay: Induction of apoptosis in human HOS cells assessed as early apoptotic cells at 5 uM incubated for 48 hrs by Annexin-V FITC/PI staining based flow cytometry analysis (reference value: 0.46%); format: functional
[28] = system: SK-OV-3; assay: Cytotoxicity against human SK-OV-3 cells incubated for 48 hrs by MTT assay; format: functional, cell-based; settings: SK-OV-3, 48 h
[29] = system: HOS; assay: Cytotoxicity against human HOS cells cultured as 3D spheroids incubated for 120 hrs; format: functional, cell-based
[30] = system: HOS; assay: Induction of apoptosis in human HOS cells assessed as fold increase in p53 gene expression at 1.47 uM incubated for 48 hrs by RT-qPCR analysis relative to positive control; format: functional
[31] = Acute toxicity in Swiss albino mouse assessed as change in AST level at 1.47 uM/kg, po administered for 14 days; format: organism-based; settings: in vivo, 336 h, time 14 day
[32] = Acute toxicity in Swiss albino mouse assessed as change in ALT level at 200 mg/kg, po administered for 14 days; format: organism-based; settings: in vivo, 336 h, time 14 day
[33] = Acute toxicity in Swiss albino mouse assessed as change in AST level at 200 mg/kg, po administered for 14 days; format: organism-based; settings: in vivo, 336 h, time 14 day
[34] = Acute toxicity in Swiss albino mouse assessed as change in GGT level at 200 mg/kg, po administered for 14 days; format: organism-based; settings: in vivo, 336 h, time 14 day
[35] = Homo sapiens, MG-63, 48 h, read-out: IC50

Compound: O=c1/c(=C\c2ccccc2)n2c(=O)c3ccccc3nc2n1CCN1CCOCC1
IC50 [1]: 3.67 µM
IC50 [2]: 5.96 µM
IC50 [3]: 3.81 µM
Activity [4]: 12.81%
IC50 at 48 h [5]: 4.25 µM
fold change (FC) [6]: 6.143
Activity [7]: 35.5%
Activity [8]: 75.36%
inhibition [9]: Active
Activity [10]: 61.08%
IC50 [11]: 19.1 µM
IC50 [12]: 3.2 µM
Ratio IC50 [13]: 2.89
Activity [14]: Active
Activity [15]: 22 U/L
IC50 [16, 35]: 17.9 µM
Activity [17]: 11.41%
IC50 [18]: 1.47 µM
Activity [19]: 23.58%
Activity [20]: 39.61%
fold change (FC) [21]: 0.237
Activity [22]: 10.3 U/L
IC50 [23]: > 100 µM
Activity [24]: 27.51%
fold change (FC) [25]: 0.146
IC50 [26]: 56.4 µM
Activity [27]: 3.22%
IC50 [28]: 3.48 µM
Activity [29]: Active
fold change (FC) [30]: 4.907
Activity [31]: 19.5 U/L

Compound: CC[C@@]1(O)C(=O)OCc2c1cc1n(c2=O)Cc2cc3ccccc3nc2-1 [CAMPTOTHECIN]
IC50 [1]: 0.051 µM
IC50 [2]: 0.108 µM
IC50 [3]: 0.042 µM
IC50 [11]: 0.233 µM
IC50 [12]: 0.055 µM
IC50 [16, 35]: 0.046 µM
IC50 [18]: 0.049 µM
IC50 [23]: 0.234 µM
IC50 [26]: 0.324 µM
IC50 [28]: 0.241 µM

Compound: COc1cccc2c1C(=O)c1c(O)c3c(c(O)c1C2=O)C[C@@](O)(C(=O)CO)C[C@@H]3O[C@H]1C[C@H](N)[C@H](O)[C@H](C)O1 [DOXORUBICIN]
IC50 [2]: 1.15 µM
IC50 [3]: 0.072 µM
Activity [32]: 60 U/L
Activity [33]: 31 U/L
IC50 [11]: 0.086 µM
IC50 [12]: 0.144 µM
IC50 ([16]; mg-63): Not Active
IC50 [18]: 0.03 µM
Activity [34]: 13.7 U/L
IC50 [23]: 0.567 µM
IC50 [26]: 0.01 µM
IC50 [28]: 0.033 µM

Compound: COc1cc2nc3n(c(=O)c2cc1OC)c(=O)c1cc2ccccc2c(=O)n13
IC50 [2]: > 100 µM
inhibition [9]: Active
IC50 [18]: > 100 µM
IC50 [23]: > 100 µM
IC50 [26]: > 100 µM

The next lines start with results.

inhibition [9]: Active
Compound: O=c1c2ccccc2nc2n1c(=O)c1cc3ccccc3c(=O)n12
IC50 [2]: 70.7 µM
IC50 at 48 h [5]: 128 µM
IC50 [18]: > 100 µM
IC50 [23]: > 100 µM
IC50 [26]: > 100 µM

inhibition [9]: Active
Compound: O=C1NC(=S)n2c1cc1ccccc1c2=O
IC50 [2]: > 100 µM
IC50 at 48 h [5]: 258 µM
IC50 [18]: > 100 µM
IC50 [23]: > 100 µM
IC50 [26]: 12.6 µM

inhibition [9]: Active
Compound: O=C1c2cc3ccccc3c(=O)n2C(=S)N1c1ccccc1
IC50 [2]: > 100 µM
IC50 [18]: > 100 µM
IC50 [23]: > 100 µM
IC50 [26]: > 100 µM
